The source of these data is patent publication US6525059B1, “Substituted pyrazoles as p38 kinase inhibitors” (G. D. Searle & Company, priority 1998, dated 2003).

One assay addresses T1, human p38 kinase alpha (Homo sapiens, UniProt Q16539).
T1 construct: The coding region of the human p38a cDNA was obtained by PCR-amplification from RNA isolated from the human monocyte cell line THP.1; GST (N); made in house; host or cells: E. coli DH10B
Briefly: p38 kinase in vitro assay, phosphorylation of biotinylated PHAS-I with gamma 32P-ATP. Type of assay: biochemical. To be noted: for inhibition at 1 µM: read-out: P38 alpha kinase % inhib @ conc. The procedure, abridged: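 Radiometric filter-capture read-out: streptavidin plates trap biotin-PHAS-I labelled by activated (MKK6) human p38α from γ-32P-ATP. Buffer 25 mM HEPES pH 7.5, 10 mM magnesium acetate, 50 μM cold ATP; reactions 1 h or overnight at 30 °C; inhibitors 10-fold dilutions 100 to 0.001 μM, triplicates, 1% DMSO.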

A further assay deals with TNF-α. Briefly: LPS stimulation of TNF production by U937 cells. Type of assay: cell-based, human. The note with it: for inhibition at 1 µM / IC50: Homo sapiens; for inhibition at 1 µM: U-937, @ 1.0 uM, read-out: U937 Cell % inhib @ conc. The procedure, abridged: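 PMA-differentiated human U937 cells (20 ng/ml PMA, 24 h, then 24-48 h rest) at 2 million cells/ml, 0.1% DMSO final, stimulated with E. coli LPS (100 ng/ml final) for 4 h at 37° C. TNF-α in medium measured by ELISA; IC50 in μM.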

Setting [1] is: read-out: P38 alpha kinase IC50.
The mark [2] stands for this setting: U-937, TNF production, LPS-stimulated human U937 cells, read-out: U937 Cell IC50.

Where two headings read alike, the source gives them in different places.

T1 sequence (Q16539 whole entry): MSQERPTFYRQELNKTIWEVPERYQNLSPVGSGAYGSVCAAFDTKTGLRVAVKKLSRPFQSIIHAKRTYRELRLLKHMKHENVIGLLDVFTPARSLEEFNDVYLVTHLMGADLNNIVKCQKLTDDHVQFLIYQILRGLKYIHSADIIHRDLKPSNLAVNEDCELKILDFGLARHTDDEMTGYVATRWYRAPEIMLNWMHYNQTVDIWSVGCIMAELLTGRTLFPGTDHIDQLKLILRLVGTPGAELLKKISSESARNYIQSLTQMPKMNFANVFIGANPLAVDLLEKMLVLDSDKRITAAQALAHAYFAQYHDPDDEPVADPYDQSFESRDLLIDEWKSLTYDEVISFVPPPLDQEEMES

As to `C[C@@H](NC(=O)N1CCCC1)c1[nH]nc(-c2ccc(F)cc2)c1-c1ccncc1` [Example B-0404], the IC50 at human p38 kinase alpha (setting [1]) worked out at 310 nM. The inhibition at 1 µM in the assay on TNF-α came out at 48%.
Consider `O=[N+]([O-])c1cc(S(=O)(=O)NCc2[nH]nc(-c3ccc(F)cc3)c2-c2ccncc2)ccc1Cl` [Example B-0102], for which the inhibition at 1 µM at human p38 kinase alpha is 81%; in the assay with TNF-α it was 15%.
Regarding `O=C(NCc1ccc(S(=O)(=O)NCc2[nH]nc(-c3ccc(F)cc3)c2-c2ccncc2)s1)c1ccccc1` [Example B-0255], on human p38 kinase alpha (setting [1]), the IC50 is 320 nM. For the same compound, the inhibition at 1 µM with TNF-α is 68%.
`O=C(CCc1ccccc1)NCc1[nH]nc(-c2ccc(F)cc2)c1-c1ccncc1` [Example B-0076]: the inhibition at 1 µM at human p38 kinase alpha is 58%; in the assay with TNF-α, 21%.
For the compound `CCCOC(=O)N[C@H](C)c1[nH]nc(-c2ccc(F)cc2)c1-c1ccncc1` [Example B-0425], the IC50 on human p38 kinase alpha (setting [1]) turned out to be 260 nM. In addition, in the assay on TNF-α, the inhibition at 1 µM came to 54%.
With `CC(=O)NCc1[nH]nc(-c2ccc(F)cc2)c1-c1ccncc1` [Example B-0044], the IC50 on human p38 kinase alpha (setting [1]) turned out to be 140 nM; in the assay with TNF-α (setting [2]) it was 190 nM.
Turning to `CN(C)CCCNc1[nH]nc(-c2ccc(F)cc2)c1-c1ccncc1` [Example A-287, N′-[5-(4-fluorophenyl)-4-(4-pyridinyl)-1H-pyrazol-3-yl]-N,N-dimethyl-1,3-propanediamine], the IC50 amounted to 41 nM on human p38 kinase alpha (p38α in vitro, PHAS-I assay procedure, read-out: p38^1 IC50) and 270 nM in the assay on TNF-α (U-937, LPS-stimulated U937 cells, read-out: U937 IC50).
In the case of `O=C(NCc1[nH]nc(-c2ccc(F)cc2)c1-c1ccncc1)c1ccco1` [Example B-0209], at human p38 kinase alpha (setting [1]), the IC50 was 290 nM. The inhibition at 1 µM in the assay on TNF-α came to 8%.
For `O=C(NCc1[nH]nc(-c2ccc(F)cc2)c1-c1ccncc1)c1ccccn1` [Example B-0198], in that order: 1200 nM and 2%.
`O=C(NCc1[nH]nc(-c2ccc(F)cc2)c1-c1ccncc1)c1cccc2ccccc12` [Example B-0275]: at human p38 kinase alpha (setting [1]), the IC50 was 2670 nM. Moreover, the inhibition at 1 µM in the assay on TNF-α is 33%.
The like results for `CCCOC(=O)NCc1[nH]nc(-c2ccc(F)cc2)c1-c1ccncc1` [Example B-0203] were, in that order, 160 nM and 65%.
For `Cc1ccc(C(=O)NCc2[nH]nc(-c3ccc(F)cc3)c2-c2ccncc2)cc1` [Example B-0269], in that order: 9810 nM and 19%.
Take `CC(C)OC(=O)NCc1[nH]nc(-c2ccc(F)cc2)c1-c1ccncc1` [Example B-0205]: at human p38 kinase alpha (setting [1]), the IC50 is 96 nM. Further, the inhibition at 1 µM in the assay on TNF-α was 54%.
As to `COc1cc(C(=O)NCc2[nH]nc(-c3ccc(F)cc3)c2-c2ccncc2)cc(OC)c1OC` [Example B-0085], the inhibition at 1 µM at human p38 kinase alpha was determined as 83%; with TNF-α it was 21%.
With `C[C@@H](NC(=O)c1cc(C(F)(F)F)ccc1F)c1[nH]nc(-c2ccc(F)cc2)c1-c1ccncc1` [Example B-0506], the IC50 at human p38 kinase alpha (setting [1]) amounted to 940 nM. Also, the inhibition at 1 µM in the assay with TNF-α amounted to 43%.
With `CCCC(CCC)C(=O)NCc1[nH]nc(-c2ccc(F)cc2)c1-c1ccncc1` [Example B-0057], the inhibition at 1 µM on human p38 kinase alpha came out at 96%; in the assay on TNF-α, 29%.
Consider `COC(=O)NCc1[nH]nc(-c2ccc(F)cc2)c1-c1ccncc1` [Example B-0207], for which the IC50 at human p38 kinase alpha (setting [1]) came to 120 nM. In addition, in the assay with TNF-α, the inhibition at 1 µM is 52%.
The like results for `O=C(NCc1[nH]nc(-c2ccc(F)cc2)c1-c1ccncc1)c1cc(Cl)cc(Cl)c1` [Example B-0273] were, in that order, 5030 nM and 13%.
Consider `O=S(=O)(NCc1[nH]nc(-c2ccc(F)cc2)c1-c1ccncc1)c1ccc2ccccc2c1` [Example B-0110], for which the results for the inhibition at 1 µM on human p38 kinase alpha and in the assay with TNF-α were 66% and 13%, respectively.
With `C[C@@H](NS(C)(=O)=O)c1[nH]nc(-c2ccc(F)cc2)c1-c1ccncc1` [Example B-0396], the figures for the IC50 at human p38 kinase alpha (setting [1]) and in the assay with TNF-α (setting [2]) were 97 nM and 440 nM, respectively.
In the case of `CCOC(=O)CCCC(=O)NCc1[nH]nc(-c2ccc(F)cc2)c1-c1ccncc1` [Example B-0096], the figures for the inhibition at 1 µM on human p38 kinase alpha and in the assay on TNF-α were 91% and 22%, respectively.
The like results for `CCc1ccccc1NC(=O)NCc1[nH]nc(-c2ccc(F)cc2)c1-c1ccncc1` [Example B-0169] were, in that order, 43% and 21%.
For `O=C(NCc1[nH]nc(-c2ccc(F)cc2)c1-c1ccncc1)c1cccc(OC(F)(F)F)c1` [Example B-0060], in that order: 73% and 22%.
Take `O=C(NCc1[nH]nc(-c2ccc(F)cc2)c1-c1ccncc1)C(F)(F)F` [Example B-0210]: at human p38 kinase alpha (setting [1]), the IC50 was 57 nM. Moreover, the inhibition at 1 µM in the assay with TNF-α worked out at 67%.
For `O=C(NCc1[nH]nc(-c2ccc(F)cc2)c1-c1ccncc1)c1ccc(C(F)(F)F)cc1` [Example B-0302], in that order: 4020 nM and 24%.
For `C[C@@H](NS(=O)(=O)c1ccc(CNC(=O)c2ccccc2)s1)c1[nH]nc(-c2ccc(F)cc2)c1-c1ccncc1` [Example B-0480], in that order: 120 nM and 88%.
As for `O=C(NCc1[nH]nc(-c2ccc(F)cc2)c1-c1ccncc1)C1CCCC1` [Example B-0079], the inhibition at 1 µM at human p38 kinase alpha came out at 93%; with TNF-α it was 13%.
Turning to `COC(=O)CCC(=O)NCc1[nH]nc(-c2ccc(F)cc2)c1-c1ccncc1` [Example B-0077], the IC50 amounted to 800 nM on human p38 kinase alpha (setting [1]) and 10000 nM in the assay on TNF-α (setting [2]).
As to `O=C(NCc1[nH]nc(-c2ccc(F)cc2)c1-c1ccncc1)c1c(F)cccc1F` [Example B-0298], at human p38 kinase alpha (setting [1]), the IC50 was 580 nM. Besides, the inhibition at 1 µM with TNF-α worked out at 48%.
Take `CC(=O)OC(C)(C)C(=O)NCc1[nH]nc(-c2ccc(F)cc2)c1-c1ccncc1` [Example B-0043]: the IC50 at human p38 kinase alpha (setting [1]) was 220 nM; in the assay with TNF-α (setting [2]), 540 nM.
In the case of `O=C(NCc1[nH]nc(-c2ccc(F)cc2)c1-c1ccncc1)c1cccc(C(F)(F)F)c1` [Example B-0270], the IC50 on human p38 kinase alpha (setting [1]) stood at 5790 nM. The inhibition at 1 µM in the assay on TNF-α was 13%.
For the compound `C[C@@H](NS(=O)(=O)c1cccc2cccnc12)c1[nH]nc(-c2ccc(F)cc2)c1-c1ccncc1` [Example B-0443], the IC50 on human p38 kinase alpha (setting [1]) amounted to 2010 nM. Besides, the inhibition at 1 µM in the assay with TNF-α is 71%.
For the compound `CC(C)=CC(=O)N[C@H](C)c1[nH]nc(-c2ccc(F)cc2)c1-c1ccncc1` [Example B-0370], the IC50 on human p38 kinase alpha (setting [1]) is 650 nM. In addition, the inhibition at 1 µM in the assay with TNF-α amounted to 28%.
The like results for `CC(=O)Nc1ccc(S(=O)(=O)N[C@H](C)c2[nH]nc(-c3ccc(F)cc3)c2-c2ccncc2)cc1` [Example B-0431] were, in that order, 210 nM and 64%.
Regarding `COc1ccc(C)cc1S(=O)(=O)NCc1[nH]nc(-c2ccc(F)cc2)c1-c1ccncc1` [Example B-0246], the figures for the IC50 at human p38 kinase alpha (setting [1]) and in the assay with TNF-α (setting [2]) were below 100 nM and above 1000 nM, respectively.
Consider `C[C@@H](NC(=O)c1ccc(C(F)(F)F)cc1)c1[nH]nc(-c2ccc(F)cc2)c1-c1ccncc1` [Example B-0527], for which the IC50 on human p38 kinase alpha (setting [1]) was 1090 nM. Also, the inhibition at 1 µM in the assay with TNF-α was found to be 63%.
The like results for `C[C@@H](NC(=O)N1CCOCC1)c1[nH]nc(-c2ccc(F)cc2)c1-c1ccncc1` [Example B-0405] were, in that order, 790 nM and 30%.
The like results for `C[C@@H](NC(=O)c1ccccc1F)c1[nH]nc(-c2ccc(F)cc2)c1-c1ccncc1` [Example B-0522] were, in that order, 150 nM and 75%.
Turning to `O=C(NCc1[nH]nc(-c2ccc(F)cc2)c1-c1ccncc1)[C@H]1CCCN1C(=O)OCC1c2ccccc2-c2ccccc21` [Example B-0197], the IC50 at human p38 kinase alpha (setting [1]) came out at 2000 nM. Further, the inhibition at 1 µM with TNF-α stood at 14%.
For `C[C@@H](NC(=O)c1ccc(I)cc1)c1[nH]nc(-c2ccc(F)cc2)c1-c1ccncc1` [Example B-0363], in that order: 4670 nM and 25%.
For the compound `CC(NS(=O)(=O)CC12CCC(CC1=O)C2(C)C)c1[nH]nc(-c2ccc(F)cc2)c1-c1ccncc1` (stereo not shown) [Example B-0434], the IC50 at human p38 kinase alpha (setting [1]) came out at 120 nM. For the same compound, the inhibition at 1 µM in the assay on TNF-α was 65%.
The like results for `O=C(NCc1[nH]nc(-c2ccc(F)cc2)c1-c1ccncc1)c1ccc(F)cc1C(F)(F)F` [Example B-0286] were, in that order, 330 nM and 50%.
Consider `Cc1cccc(C)c1NC(=O)NCc1[nH]nc(-c2ccc(F)cc2)c1-c1ccncc1` [Example B-0168], for which, at human p38 kinase alpha, the inhibition at 1 µM amounted to 44%. In addition, in the assay on TNF-α (setting [2]), the IC50 is 2360 nM.
On to `C[C@@H](NS(=O)(=O)c1cccc2nonc12)c1[nH]nc(-c2ccc(F)cc2)c1-c1ccncc1` [Example B-0477], for which the IC50 at human p38 kinase alpha (setting [1]) was 1480 nM. Besides, the inhibition at 1 µM with TNF-α was 96%.
In the case of `O=S(=O)(NCc1[nH]nc(-c2ccc(F)cc2)c1-c1ccncc1)c1ccc(F)cc1` [Example B-0104], the inhibition at 1 µM on human p38 kinase alpha came out at 56%. Besides, in the assay on TNF-α (setting [2]), the IC50 stood at 2780 nM.
As to `CCS(=O)(=O)N[C@H](C)c1[nH]nc(-c2ccc(F)cc2)c1-c1ccncc1` [Example B-0395], the IC50 on human p38 kinase alpha (setting [1]) is 87 nM. For the same compound, in the assay with TNF-α, the inhibition at 1 µM worked out at 48%.
As to `CC(NC(=O)Cc1cccs1)c1[nH]nc(-c2ccc(F)cc2)c1-c1ccncc1` (stereo not shown) [Example B-0600], the IC50 at human p38 kinase alpha (setting [1]) was found to be 2 nM. For the same compound, the “U937 Cell % inhib @ conc.” value in the assay on TNF-α (@ 1.0 uM) amounted to 28.0% @ 1.0 uM.
